Consider one compound from patent US20080081053A1, “Treatment Method” (priority 2004, published 2008).

The test deals with advanced AML. As to the kind of experiment: Phase 2 clinical study in patients with advanced AML. Type of test: in vivo, human. As to conditions: for %myeloblasts in bone marrow: patient with HI for neutrophils, 36% at baseline. On the procedure: In a Phase 2 clinical study, 24 patients, 18 years or older, with advanced AML were treated with 12.5 mg AP23573 as a 30-minute intravenous infusion daily for 5 days every-2-weeks (QDX5, daily). The majority of patients enrolled in this trial had aggressive disease and received AP23573 study treatment as at least a 3rd line treatment regimen. Responses were assessed at the end of each cycle (4 weeks of study treatment). At the end of one cycle, two patients had Hematologic Improvement (HI), including erythroid and neutrophil minor responses. […] Six patients were stable at the end of Cycle 1 (neither response nor disease progression).
The criteria for observed responses were as follows: • a Minor Response for erythroid HI: for patients with pre-dosing hemoglobin less than 11 g/dL, […] increase in hemoglobin; for RBC transfusion-dependnt patients, 50% decrease in transfusion requirements • a Minor Response for neutrophil HI: for ANC less than 1.5×10^9 before dosing, ANC increase of at least 100%, but absolute increase less than 1.5×10^9 • Stable Disease/no response: no significant change since baseline (neither response nor progression criteria were met) • Progressive Disease: One of the following: a 50% or greater decrement from maximum response levels in graunulocytes or platelets, a reduction in hemoglobin concentration by at least 2 g/dL, or transfusion dependence

In the case of `CO[C@H]1C[C@@H]2CC[C@@H](C)[C@@](O)(O2)C(=O)C(=O)N2CCCC[C@H]2C(=O)O[C@H]([C@H](C)C[C@@H]2CC[C@@H](OP(C)(C)=O)[C@H](OC)C2)CC(=O)[C@H](C)/C=C(\C)[C@@H](O)[C@@H](OC)C(=O)[C@H](C)C[C@H](C)/C=C/C=C/C=C/1C` [AP23573], for the setting “24 patients with advanced AML, 12.5 mg, 30-minute i.v. infusion daily for 5 days every 2 weeks (QDX5), at the end of one cycle (4 weeks)”, the “patients with Hematologic Improvement (HI), including erythroid and neutrophil minor responses” value is recorded as “two”. The “patients stable (neither response nor disease progression)” value (24 patients with advanced AML, end of Cycle 1, 12.5 mg i.v. QDX5) is reported as “Six”. For the same compound, the “%myeloblasts in bone marrow” value reads like this: (at Cycle 2, 12.5 mg i.v. QDX5) 15%; (end of Cycle 1, 12.5 mg i.v. QDX5) 9%.
